#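 Exposure lasted 48 hours, with cells grown in 96-well plates and compounds tested at five concentrations. GI50 is the concentration that inhibits growth by half.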 Activity calls are given as the source filed them. Cut-off read from the data, not from the text of the source: active = GI50 up to about 1.1 µM and inactive = higher.
# Key:
# Test in all cases: inhibition of tumour cell growth, NCI panel, 48 h
# A549 = system: A549
# TK-10 = system: TK-10
# SF-295 = system: SF-295
# HOP-62 = system: HOP-62
# SK-MEL-2 = system: SK-MEL-2
# SR = system: SR
# U-251 = system: U-251
# HCT-116 = system: HCT-116
# SNB-75 = system: SNB-75
# HCT-15 = system: HCT-15
# CCRF-CEM = system: CCRF-CEM
# NCI-H522 = system: NCI-H522
# MOLT-4 = system: MOLT-4
# Malme-3M = system: Malme-3M
# UACC-62 = system: UACC-62
# A498 = system: A498
# RXF 393 = system: RXF 393
Compound,GI50 (A549),GI50 (TK-10),GI50 (SF-295),GI50 (HOP-62),GI50 (SK-MEL-2),GI50 (SR),GI50 (U-251),GI50 (HCT-116),GI50 (SNB-75),GI50 (HCT-15),GI50 (CCRF-CEM),GI50 (NCI-H522),GI50 (MOLT-4),GI50 (Malme-3M),GI50 (UACC-62),GI50 (A498),GI50 (RXF 393)
O=C1c2ccccc2C(=O)C1(O)c1c[nH]c2ccccc12,> 100 µM (inactive),> 100 µM (inactive),> 100 µM (inactive),> 100 µM (inactive),> 100 µM (inactive),> 100 µM (inactive),> 100 µM (inactive),> 100 µM (inactive),> 100 µM (inactive),> 100 µM,> 100 µM (inactive),> 100 µM (inactive),> 100 µM (inactive),> 100 µM (inactive),> 100 µM (inactive),,
C=CCCC(=O)CC(=O)OCc1ccccc1,> 100 µM (inactive),> 100 µM (inactive),> 100 µM (inactive),> 100 µM (inactive),> 100 µM (inactive),,> 100 µM (inactive),> 100 µM (inactive),99.3 µM (inactive),> 100 µM,> 100 µM (inactive),,> 100 µM (inactive),> 100 µM (inactive),> 100 µM (inactive),> 100 µM (inactive),
N#CC(Nc1cccc(C(F)(F)F)c1)c1ccccc1C(F)(F)F (configuration not stated),15.3 µM (inactive),14.7 µM (inactive),10.5 µM (inactive),3.52 µM (inactive),7.21 µM (inactive),4.82 µM (inactive),16.9 µM (inactive),7.66 µM (inactive),18.3 µM (inactive),7 µM,18.4 µM (inactive),6.71 µM (inactive),14.6 µM (inactive),7.33 µM (inactive),16.2 µM (inactive),19.1 µM (inactive),12.2 µM (inactive)
CC(C)c1cccc(C(C)C)c1NC(=O)C(=O)C1CCC2=C(Sc3ccccc3N2)C1=O (configuration not stated),> 100 µM (inactive),> 100 µM (inactive),80.5 µM (inactive),> 100 µM (inactive),> 100 µM (inactive),> 100 µM (inactive),34.8 µM (inactive),48.9 µM (inactive),32.3 µM (inactive),61.7 µM,24 µM (inactive),,43.7 µM (inactive),> 100 µM (inactive),> 100 µM (inactive),> 100 µM (inactive),> 100 µM (inactive)
N#CC1=C(N)n2c(s/c(=C\c3ccc(Cl)cc3)c2=O)=C(c2nc3ccccc3[nH]2)C1c1ccc(Cl)cc1 (configuration not stated),3.32 µM (inactive),0.596 µM (active),,2.23 µM (inactive),2.14 µM (inactive),2.17 µM (inactive),1.48 µM (inactive),1.82 µM (inactive),2.77 µM (inactive),2.06 µM,1.71 µM (inactive),1.96 µM (inactive),1.47 µM (inactive),2.25 µM (inactive),1.23 µM (inactive),1.38 µM (inactive),
O=C(O)CSc1ccc2nc3ccccc3c(O)c2c1,> 100 µM (inactive),> 100 µM (inactive),> 100 µM (inactive),> 100 µM (inactive),,> 100 µM (inactive),> 100 µM (inactive),> 100 µM (inactive),,> 100 µM,> 100 µM (inactive),,> 100 µM (inactive),> 100 µM (inactive),> 100 µM (inactive),> 100 µM (inactive),
COc1cc2c(cc1OC)C(=O)Cc1ccc3c(c1CNCC2)OCO3,> 100 µM (inactive),> 100 µM (inactive),> 100 µM (inactive),> 100 µM (inactive),> 100 µM (inactive),,> 100 µM (inactive),> 100 µM (inactive),> 100 µM (inactive),> 100 µM,> 100 µM (inactive),> 100 µM (inactive),> 100 µM (inactive),> 100 µM (inactive),> 100 µM (inactive),> 100 µM (inactive),
COc1ccc(C(=O)OCC2OC(n3cnc4c(=S)nc[nH]c43)C(OC(=O)c3ccc(OC)cc3)C2OC(=O)c2ccc(OC)cc2)cc1 (configuration not stated),> 100 µM (inactive),7.43 µM (inactive),33.1 µM (inactive),3.18 µM (inactive),12.8 µM (inactive),14 µM (inactive),> 100 µM (inactive),10.5 µM (inactive),7.52 µM (inactive),47.2 µM,8.47 µM (inactive),7 µM (inactive),22.5 µM (inactive),32.2 µM (inactive),13.3 µM (inactive),,
CC(=O)O[C@]1(C(C)=O)CC[C@H]2[C@@H]3C[C@H](C)C4=CC(=O)C=C[C@]4(C)[C@@]3(F)[C@@H](O)C[C@@]21C [FLUOROMETHOLONE ACETATE],43.2 µM (inactive),67 µM (inactive),66.7 µM (inactive),> 100 µM (inactive),,24.7 µM (inactive),87.7 µM (inactive),> 100 µM (inactive),> 100 µM (inactive),19.6 µM,0.213 µM (active),62.1 µM (inactive),25.2 µM (inactive),24.9 µM (inactive),23.7 µM (inactive),,23.7 µM (inactive)
NCCSc1nc(N)c2ncn(C3OC(CO)C(O)C3O)c2n1 (configuration not stated),> 100 µM (inactive),> 100 µM (inactive),> 100 µM (inactive),> 100 µM (inactive),> 100 µM (inactive),> 100 µM (inactive),> 100 µM (inactive),> 100 µM (inactive),> 100 µM (inactive),> 100 µM,> 100 µM (inactive),> 100 µM (inactive),> 100 µM (inactive),> 100 µM (inactive),> 100 µM (inactive),> 100 µM (inactive),
CCC1CN2CCC3(c4ccccc4)CC(C(=O)OC)=CC1C23 (configuration not stated),17.3 µM (inactive),25.4 µM (inactive),18.2 µM (inactive),19.2 µM (inactive),,41.3 µM (inactive),16.3 µM (inactive),15.9 µM (inactive),17.3 µM (inactive),17.6 µM,> 100 µM (inactive),14.1 µM (inactive),49.2 µM (inactive),15.9 µM (inactive),15.9 µM (inactive),18.6 µM (inactive),18.3 µM (inactive)
CC1=C(C(=O)Nc2cccc(Cl)c2)C(c2ccccc2F)C(C(=O)Nc2cccc(Cl)c2)=C(C)N1,7.78 µM (inactive),21.5 µM (inactive),17.3 µM (inactive),15.8 µM (inactive),11.6 µM (inactive),,12.6 µM (inactive),,6.79 µM (inactive),,4.61 µM (inactive),9.16 µM (inactive),2.51 µM (inactive),15.8 µM (inactive),,13.9 µM (inactive),7.24 µM (inactive)
CCOC(=O)C(=O)Nc1cc(Cl)ccc1Cl,> 100 µM (inactive),> 100 µM (inactive),> 100 µM (inactive),> 100 µM (inactive),> 100 µM (inactive),> 100 µM (inactive),> 100 µM (inactive),> 100 µM (inactive),34.2 µM (inactive),> 100 µM,> 100 µM (inactive),> 100 µM (inactive),> 100 µM (inactive),> 100 µM (inactive),> 100 µM (inactive),> 100 µM (inactive),
CCOC(=O)c1ccc(O)cc1 [ETHYLPARABEN],> 100 µM (inactive),> 100 µM (inactive),> 100 µM (inactive),> 100 µM (inactive),> 100 µM (inactive),> 100 µM (inactive),> 100 µM (inactive),> 100 µM (inactive),> 100 µM (inactive),> 100 µM,> 100 µM (inactive),> 100 µM (inactive),> 100 µM (inactive),> 100 µM (inactive),> 100 µM (inactive),,> 100 µM (inactive)
OCC12C=CC(C1)c1ccccc12 (configuration not stated),> 100 µM (inactive),> 100 µM (inactive),> 100 µM (inactive),> 100 µM (inactive),,> 100 µM (inactive),> 100 µM (inactive),> 100 µM (inactive),,> 100 µM,> 100 µM (inactive),,> 100 µM (inactive),> 100 µM (inactive),> 100 µM (inactive),> 100 µM (inactive),
CC(C)[C@@H](C)CC[C@@H](C)C1CC=C2[C@@H]3CCC4C[C@@H](O[Si](C)(C)C(C)(C)C)CC[C@]4(C)C3CC[C@@]21C (some centres not stated),> 100 µM (inactive),> 100 µM (inactive),,> 100 µM (inactive),> 100 µM (inactive),> 100 µM (inactive),> 100 µM (inactive),> 100 µM (inactive),> 100 µM (inactive),> 100 µM,> 100 µM (inactive),> 100 µM (inactive),> 100 µM (inactive),> 100 µM (inactive),> 100 µM (inactive),> 100 µM (inactive),> 100 µM (inactive)
CCC1(O)C[C@H]2CN(CCCc3c([nH]c4ccccc34)[C@@](C(=O)OC)(c3cc4c(cc3OC)N(C)C3[C@](O)(C(=O)OC)[C@H](OC(C)=O)[C@]5(CC)C=CCN6CC[C@]43[C@H]65)C2)C1 (some centres not stated),1.46 µM (inactive),> 10 µM (inactive),0.275 µM (active),0.465 µM (active),0.63 µM (active),,0.565 µM (active),0.855 µM (active),1.35 µM (inactive),2.99 µM,0.453 µM (active),0.194 µM (active),0.586 µM (active),0.977 µM (active),0.525 µM (active),1.21 µM (inactive),0.834 µM (active)
COc1ccc(-c2ccc(CC(=O)O)cc2)cc1OC,> 100 µM (inactive),> 100 µM (inactive),> 100 µM (inactive),95.5 µM (inactive),> 100 µM (inactive),> 100 µM (inactive),> 100 µM (inactive),> 100 µM (inactive),97.5 µM (inactive),,> 100 µM (inactive),> 100 µM (inactive),> 100 µM (inactive),> 100 µM (inactive),> 100 µM (inactive),> 100 µM (inactive),

# Source: ChEMBL document CHEMBL1201862, “PubChem BioAssay data set” (2004)
